In ChEMBL document CHEMBL4308832, “Discovery of Allosteric, Potent, Subtype Selective, and Peripherally Restricted TrkA Kinase Inhibitors” (J Med Chem, 2018):

Key:
in vitro = details: dog, MDCK
physchem = details: buffer, pH 7.4
in vivo [1] = details: rat, brain, iv, 0.5 mg/kg
in vivo [2] = details: rat, iv, 0.5 mg/kg
in vivo [3] = details: rat, po, 2 mg/kg
in vivo [4] = details: rat, po, 2 mg/kg; remark: listed apart in the source
in vivo [5] = details: rat, brain, iv, 1 mg/kg
in vivo [6] = details: rat, iv, 1 mg/kg
in vivo [7] = details: rat, po, 3 mg/kg
in vivo [8] = details: rat, po, 3 mg/kg; remark: listed apart in the source

Structure (SMILES) | Papp A→B (in vitro) [nm/s] | logD (physchem) | also measured
NCCNC(=O)c1cc(NC(=O)c2cc(-c3ccccn3)c(Cl)cc2Cl)n(-c2ccccc2)n1 | 7.2 | 0.94 | –
CC(C)(O)CNC(=O)c1cc(NC(=O)c2cc(-c3ncccc3F)c(Cl)cc2Cl)n(-c2ccccc2)n1 | 120 | 3.3 | Kp uu at 4 h (in vivo [1]): 0.015; Vd (in vivo [2]): 1.6 L/kg; Tmax (in vivo [3]): 3 h; bioavailability (in vivo [4]): 46%
NC(=O)c1cc(NC(=O)c2cc(-c3ncccc3F)ccc2Cl)n(-c2ccccc2)n1 | 190 | 2.6 | Kp uu at 4 h (in vivo [5]): 0.1; Vd (in vivo [6]): 0.46 L/kg; Tmax (in vivo [7]): 4 h; bioavailability (in vivo [8]): 100%
NC(=O)c1cc(NC(=O)c2cc(-c3ccccn3)c(F)cc2Cl)n(-c2ccccc2)n1 | 100 | 2.7 | –
NC(=O)c1cccc(-c2ccc(Cl)c(C(=O)Nc3cc(C(N)=O)nn3-c3ccccc3)c2)n1 | 61 | 2.3 | –
NC(=O)c1cc(NC(=O)c2cc(-c3ncccc3Cl)ccc2Cl)n(-c2ccccc2)n1 | 140 | 2.8 | Kp uu at 4 h (in vivo [5]): 0.076; Vd (in vivo [6]): 1.1 L/kg; Tmax (in vivo [7]): 0.9 h; bioavailability (in vivo [8]): 85%
NC(=O)c1cc(NC(=O)c2cc(-c3nc(N)ccc3Cl)ccc2Cl)n(-c2ccccc2)n1 | 110 | 3.2 | –
CC(=O)Nc1cccc(-c2ccc(Cl)c(C(=O)Nc3cc(C(N)=O)nn3-c3ccccc3)c2)n1 | 100 | 2.7 | –
CC(C)(O)CNC(=O)c1cc(NC(=O)c2cc(-c3ncccc3F)c(F)cc2Cl)n(-c2ccccc2)n1 | 170 | 3.1 | –
O=C(NC1COC1)c1cc(NC(=O)c2cc(-c3ccccn3)c(Cl)cc2Cl)n(-c2ccccc2)n1 | 110 | 3 | –
O=C(NCCO)c1cc(NC(=O)c2cc(-c3ccccn3)c(Cl)cc2Cl)n(-c2ccccc2)n1 | 120 | 2.8 | –
Cc1cc(Cl)c(C(=O)Nc2cc(C(N)=O)nn2-c2ccccc2)cc1-c1ccccn1 | 120 | 2.6 | –
O=C(NCCO)c1cc(NC(=O)c2cc(-c3ccccn3)c(C(F)(F)F)cc2Cl)n(-c2ccccc2)n1 | 85 | 3 | –
COc1cc(Cl)c(C(=O)Nc2cc(C(N)=O)nn2-c2ccccc2)cc1-c1ccccn1 | 130 | 2.4 | –
NC(=O)c1cc(NC(=O)c2cc(-c3ncccc3F)c(F)cc2Cl)n(-c2ccccc2)n1 | 230 | 2.7 | –
NC(=O)c1cc(NC(=O)c2cc(-c3cccc(C(F)F)n3)ccc2Cl)n(-c2ccccc2)n1 | 85 | 3.5 | –
O=C(NCCO)c1cc(NC(=O)c2cc(-c3ncccc3F)c(Cl)cc2Cl)n(-c2ccccc2)n1 | 130 | 2.8 | –
Cc1cc(NC(=O)c2ccc(Cl)cc2Cl)n(-c2ccccc2)n1 | 300 | 3.3 | –
NC(=O)c1cc(NC(=O)c2cc(-c3ccccn3)c(C3CC3)cc2Cl)n(-c2ccccc2)n1 | – | 3.1 | –
NC(=O)c1cc(NC(=O)c2cc(-c3ccccn3)c(Cl)cc2Cl)n(-c2ccccc2)n1 | 170 | 3 | –
NC(=O)c1cc(NC(=O)c2cc(-c3ccccn3)c(OC(F)F)cc2Cl)n(-c2ccccc2)n1 | 130 | 2.7 | –
NC(=O)c1cc(NC(=O)c2cc(-c3cccc(N)n3)c(Cl)cc2Cl)n(-c2ccccc2)n1 | 110 | 2.9 | –
